Reference: patent US5708063A, “Photochromic compound” (Tokuyama Corporation, priority 1993, dated 1998)

How the values were obtained:
[1] = Photochromic PMMA cast film: initial coloration density, maximum absorption wavelength and fatigue life in xenon fadeometer (Example 9); format: physicochemical; settings: PMMA cast film 0.1 mm; for λmax / Initial color density: xenon light; for Initial color density / T1/2: no stabilizer; for T1/2: time for color density to fall to half of initial value, xenon fadeometer;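 as to Initial color density: initial color density is an absorbance value so the % unit is wrong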
Text: The thickness of the cast film was adjusted to 0.1 mm.
(§1) T1/2 is defined as the time required for the color density to decrease to half of its initial value when the film is exposed to the fadeometer.

[2] = Durability of poly(allyl diglycol carbonate) lens impregnated with the compound in silicone oil, as in Example 9 (Example 10); format: physicochemical; parameters: Initial color density: unit not given here; settings: silicone oil impregnation; for Initial color density: 1.0×10^-4 mole/g; for T1/2: xenon fadeometer
Method: as §1
The solution was impregnated in the surface of a lens composed of poly(allyl diglycol carbonate) at 200° C. for 1 hour. The concentration of the solution was adjusted to 1.0×10^-4 mole/g.

Structure (SMILES) | λmax [1] [nm] | Initial color density [1] [%] | T1/2 [1] [h] | λmax [2] [nm] | Initial color density [2] | T1/2 [2] [h]
COC(=O)C(C)N1C(=O)C2=C(C3CC3OC(C)(C)C)c3cc(Cl)oc3C3(C4CCCC3(C)CC(C)(C)C4)C2C1=O (centres unmarked) [(26)] | 546 | 0.78 | 72 | – | – | –
COCCOCN1C(=O)C2=C(C3(F)C(F)(F)C3(F)F)c3c(oc4ccccc34)C3(C2C1=O)C1(F)CCC3(F)CC1 (centres unmarked) [(16)] | 498 | 0.82 | 91 | – | – | –
COC12CCC(CC1)C21c2oc3ccccc3c2C(C2CC2(Br)Br)=C2C(=O)N(CC(=O)OC(C)(C)CCC#N)C(=O)C21 (centres unmarked) [(13)] | 495 | 0.69 | 47 | – | – | –
CC1=C2C(=O)OC(=O)C2C2(c3sc4c(c31)CCCC4)C1CCCC2CCC1 (centres unmarked) [(G), reference compound] | 585 | 0.71 | 10 | – | – | –
COC1CC1C1=C2C(=O)N(Cc3ccc4ccccc4c3)C(=O)C2C2(c3c1sc1ccccc31)C1CCC2CC1 (centres unmarked) [(19)] | 524 | 0.58 | 81 | – | – | –
O=C1OC(=O)C2C1=C(C1CC1)c1c(oc3ccccc13)C21C2CCC1CC2 (centres unmarked) [(52)] | 534 | 1.21 | 54 | – | – | –
CCSC1CC1C1=C2C(=O)N(C(CC)COC(=O)OC[N+](=O)[O-])C(=O)C2C2(c3scc([N+](=O)[O-])c31)C1CC3CC2CC(C)(C3)C1 (centres unmarked) [(37)] | 540 | 0.77 | 75 | – | – | –
CCOC(=O)OCN1C(=O)C2=C(C3C(c4ccccc4)C3c3ccccc3)c3cc(-c4ccc(OC)cc4)sc3C3(C4CCCC3CCC4)C2C1=O (centres unmarked) [(31)] | 624 | 0.77 | 81 | 616 | 0.69 | 86
CCC(C#N)N1C(=O)C2=C(C3CC3[N+](=O)[O-])c3c(sc4c3CCCC4)C3(C4CCCC3(C)CCC4)C2C1=O (centres unmarked) [(25)] | 562 | 0.71 | 76 | 565 | 0.65 | 79
COc1cc2c(c(OC)c1OC)C1(C3CC4CC1CC(OC)(C4)C3)C1C(=O)N(CC(=O)NCCBr)C(=O)C1=C2C1CC1C(Cl)(Cl)Cl (centres unmarked) [(39)] | 527 | 0.58 | 65 | – | – | –
CC1=C2C(=O)N(CCc3cccc4ccccc34)C(=O)C2C2(c3c1sc1c3CCCC1)C1CCCC2CCC1 (centres unmarked) [(F), reference compound] | 508 | 0.47 | 13 | – | – | –
COc1cc2c(c(OC)c1OC)C1(C3CCC1CC3)C1C(=O)OC(=O)C1=C2C1CC1 (centres unmarked) [(51)] | 561 | 0.92 | 52 | 562 | 0.82 | 55
COC12CCCC(CCC1)C21c2c(Cl)csc2C(C2CC2CCc2ccccc2)=C2C(=O)N(CC(=O)NCCBr)C(=O)C21 (centres unmarked) [(28)] | 526 | 0.56 | 54 | – | – | –
O=C1C2=C(C3CC3)c3sc4c(c3C3(C5CCCC3CCC5)C2C(=O)N1CCc1cccc2ccccc12)CCCC4 (centres unmarked) [(33)] | 519 | 0.56 | 7.8 | 525 | 0.49 | 80
N#CCOCN1C(=O)C2=C(C3CC3c3ccccc3)c3sccc3C3(C2C1=O)C1(Cl)CCC3(Cl)CC1 (centres unmarked) [(14)] | 552 | 0.58 | 69 | – | – | –
CNC(=O)CN1C(=O)C2=C(C3CC3C(F)(F)F)c3cc([N+](=O)[O-])sc3C3(C4CCC3CC4)C2C1=O (centres unmarked) [(11)] | 530 | 0.75 | 65 | – | – | –
COc1cc(OC)c2c(c1)C(C1CC1O)=C1C(=O)N(C3CCC([N+](=O)[O-])CC3)C(=O)C1C21C2CCCC1(Cl)CCC2 (centres unmarked) [(29)] | 588 | 0.52 | 62 | – | – | –
Cc1cc2c(n1C)C1(C3CCCC1CCC3)C1C(=O)OC(=O)C1=C2C1CC1 (centres unmarked) [(53)] | 525 | 1.18 | 56 | 530 | 1.08 | 60
COc1cc(OC)c2c(c1)C(C1C(C)(C)C1(C)C)=C1C(=O)N(Cc3ccc4ccccc4c3)C(=O)C1C21C2CCC1CC2 (centres unmarked) [(18)] | 603 | 0.62 | 61 | – | – | –

More lines, now with the values ahead:

λmax [1] [nm] | Initial color density [1] [%] | T1/2 [1] [h] | λmax [2] [nm] | Initial color density [2] | T1/2 [2] [h] | Structure (SMILES)
554 | 1.24 | 48 | – | – | – | Cc1cc2c(s1)C1(C3CC4CC(Cl)(C3)CC1(Cl)C4)C1C(=O)OC(=O)C1=C2C1CC1 (centres unmarked) [(58)]
592 | 0.61 | 68 | – | – | – | Cn1c2c(c3ccccc31)C1(C3CC4CC(C3)CC1C4)C1C(=O)N(CC(C)(C)CCOC(=O)CBr)C(=O)C1=C2C1CC1CCCc1ccccc1 (centres unmarked) [(38)]
535 | 0.90 | 48 | – | – | – | CC1=C2C(=O)N(CC#N)C(=O)C2C2(c3occc31)C1CCC2CC1 (centres unmarked) [(D), reference compound]
553 | 0.68 | 51 | – | – | – | CCCCC1CC2CCCC(C1)C21c2sc(C)c(CC)c2C(C2C(I)C2I)=C2C(=O)N(CC3CCCCC3C#N)C(=O)C21 (centres unmarked) [(27)]
545 | 1.25 | 58 | 550 | 1.13 | 61 | CCOc1cc2c(s1)C1(C3CCCC1CCC3)C1C(=O)OC(=O)C1=C2C1CC1 (centres unmarked) [(55)]
554 | 0.81 | 88 | 559 | 0.70 | 93 | N#CCN1C(=O)C2=C(C3CC3Oc3ccccc3)c3ccoc3C3(C4CCC3CC4)C2C1=O (centres unmarked) [(22)]
529 | 0.72 | 52 | – | – | – | CN(C)c1ccc2cc(CCCN3C(=O)C4=C(C5CC5)c5c([N+](=O)[O-])csc5C5(C6CC7CC(C6)CC5C7)C4C3=O)ccc2c1 (centres unmarked) [(47)]
535 | – | 14 | – | – | – | CC1=C2C(=O)N(CCCc3ccc4cc(N(C)C)ccc4c3)C(=O)C2C2(c3scc([N+](=O)[O-])c31)C1CC3CC(C1)CC2C3 (centres unmarked) [(E), reference compound]
539 | 0.87 | 53 | – | – | – | CC(C)COC(=O)CN1C(=O)C2=C(C3C(CCl)C3CCl)c3cc(Br)sc3C3(C4CCCC3CCC4)C2C1=O (centres unmarked) [(23)]
509 | 0.62 | 72 | – | – | – | CCOC(=O)C12CC3CC(C1)C1(c4c([N+](=O)[O-])csc4C(C4CC4Br)=C4C(=O)N(CC(F)(F)F)C(=O)C41)C(C(=O)OCC)(C3)C2 (centres unmarked) [(43)]
531 | 0.82 | 89 | 535 | 0.73 | 95 | COC(=O)CN1C(=O)C2=C(C3CC3)c3ccoc3C3(C4CCC3CC4)C2C1=O (centres unmarked) [(20)]
545 | 0.88 | 45 | 550 | 0.81 | 49 | O=C1C2=C(C3CC3)c3cc(Br)sc3C3(C4CCCC3CCC4)C2C(=O)N1CCc1ccc2ccccc2c1 (stereo not drawn) [(3), 2-bromo-4-cyclopropyl-6,7-dihydrido-N-(β-naphtylethyl)spirobenzo[5,6-b]thiophenedicarboxyimido-7'9'-bicyclo[3.3.1]nonane]
520 | 0.51 | 24 | – | – | – | CCC(C(=O)OCCc1ccc2ccccc2c1)N1C(=O)C2=C(C)c3ccsc3C3(C4CC5CC(C4)CC3C5)C2C1=O (centres unmarked) [(A), reference compound]
571 | 0.69 | 75 | 578 | 0.63 | 80 | Cc1cc2c(s1)C1(C3CCC1CC3)C1C(=O)N(C[N+](=O)[O-])C(=O)C1=C2C1CC1 (centres unmarked) [(8)]
556 | 0.72 | 80 | – | – | – | CC1=C2C(=O)N(C[N+](=O)[O-])C(=O)C2C2(c3sc(C)cc31)C1CCC2CC1 (centres unmarked) [(C), reference compound]
548 | 0.57 | 68 | 553 | 0.51 | 71 | CC(=O)OCN1C(=O)C2=C(C3CC3)c3sc(Br)cc3C3(C4CC5CC(C4)CC3C5)C2C1=O (centres unmarked) [(42)]
538 | 0.49 | 16 | – | – | – | CC1=C2C(=O)N(CCCCC(=O)OCCc3ccc4ccccc4c3)C(=O)C2C2(c3sccc31)C1CC3CC(C1)CC2C3 (centres unmarked) [(B), reference compound]
574 | 0.73 | 85 | 580 | 0.67 | 90 | COC(=O)C(C)N1C(=O)C2=C(C3CC3)c3cc(-c4cccc(OC)c4)sc3C3(C4CC5CC(Cl)(C4)CC3(Cl)C5)C2C1=O (centres unmarked) [(35)]
